From patent US12662451B2, “Chemical compounds and uses thereof” (GLAXOSMITHKLINE INTELLECTUAL PROPERTY (NO.4) LIMITED, priority 2023, dated 2026)
Where a name gives a salt, the structure may show the parent alone.

biological target: T1, recombinant full-length WRN protein (1-1432) (Homo sapiens, UniProt Q14191); assay: WRN unwinding activity, fluorogenic 384-well assay (Example A); format: biochemical; details: WRN unwinding activity, 4 hr; Table 2; read-out: 4 hr UNW pIC50 (converted)
T1 construct: recombinant full-length WRN protein (1-1432)
Method in brief: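 200 pM enzyme (2× stock) preincubated with compound 4 h at ambient temperature, then 200 μM ATP and 12 nM quenched TAMRA-labelled dsDNA (2× stocks) added for 60 min; EDTA-quenched. Buffer 25 mM Tris pH 8.0, 5 mM NaCl, 2 mM MgCl2. Fluorescence at 525/598 nm; pIC50 from four-parameter fit.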

T1 sequence (Q14191 whole entry): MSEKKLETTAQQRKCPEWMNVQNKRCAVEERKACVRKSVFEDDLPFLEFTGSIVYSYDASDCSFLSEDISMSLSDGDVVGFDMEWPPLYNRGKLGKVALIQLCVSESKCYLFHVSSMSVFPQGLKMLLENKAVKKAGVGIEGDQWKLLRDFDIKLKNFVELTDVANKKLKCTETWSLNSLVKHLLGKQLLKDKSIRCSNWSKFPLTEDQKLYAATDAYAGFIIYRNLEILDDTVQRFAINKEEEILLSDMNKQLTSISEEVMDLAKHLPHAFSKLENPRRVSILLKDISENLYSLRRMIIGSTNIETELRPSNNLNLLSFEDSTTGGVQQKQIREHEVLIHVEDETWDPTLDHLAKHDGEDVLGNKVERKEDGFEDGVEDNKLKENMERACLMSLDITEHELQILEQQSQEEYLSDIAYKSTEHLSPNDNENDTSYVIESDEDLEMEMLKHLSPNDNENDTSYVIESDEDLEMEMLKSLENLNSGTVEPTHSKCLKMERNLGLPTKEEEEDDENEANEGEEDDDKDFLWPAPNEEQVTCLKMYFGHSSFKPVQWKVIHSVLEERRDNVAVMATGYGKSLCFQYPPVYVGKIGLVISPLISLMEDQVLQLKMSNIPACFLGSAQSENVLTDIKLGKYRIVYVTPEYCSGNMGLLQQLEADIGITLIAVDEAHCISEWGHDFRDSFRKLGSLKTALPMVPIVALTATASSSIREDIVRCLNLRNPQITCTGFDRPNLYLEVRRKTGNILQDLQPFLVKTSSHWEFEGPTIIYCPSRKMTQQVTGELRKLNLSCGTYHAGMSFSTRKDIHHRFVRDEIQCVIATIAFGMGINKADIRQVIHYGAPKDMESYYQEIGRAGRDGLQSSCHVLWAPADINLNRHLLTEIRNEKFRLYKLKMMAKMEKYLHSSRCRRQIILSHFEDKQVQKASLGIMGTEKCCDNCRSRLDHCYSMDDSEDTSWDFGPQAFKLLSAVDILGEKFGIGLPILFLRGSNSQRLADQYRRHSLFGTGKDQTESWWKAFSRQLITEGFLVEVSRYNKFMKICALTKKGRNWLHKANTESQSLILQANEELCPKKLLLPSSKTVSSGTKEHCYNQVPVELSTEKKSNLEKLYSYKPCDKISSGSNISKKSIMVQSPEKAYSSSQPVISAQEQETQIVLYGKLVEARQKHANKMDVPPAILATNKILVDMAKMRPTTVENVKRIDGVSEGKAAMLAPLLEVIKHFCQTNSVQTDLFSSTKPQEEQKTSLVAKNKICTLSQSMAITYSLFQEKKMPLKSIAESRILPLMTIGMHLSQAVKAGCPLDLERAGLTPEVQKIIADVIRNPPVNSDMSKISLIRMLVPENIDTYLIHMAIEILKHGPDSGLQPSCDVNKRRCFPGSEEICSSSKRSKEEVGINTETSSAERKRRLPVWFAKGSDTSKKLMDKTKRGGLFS

| IC50 | SMILES |
| --- | --- |
| 1.58 nM | O=C(O)[C@@H]1[C@@H](c2ccc(-c3cccnn3)cc2)CCC[C@H]1C(=O)Nc1ccc(C(F)(F)F)cc1F [Example 38, (1R,2R,6S)-2-((2-fluoro-4-(trifluoromethyl)phenyl)carbamoyl)-6-(4-(pyridazin-3-yl)phenyl)cyclohexane-1-carboxylic acid] |
| 10000 nM | COC(=O)N1CCc2c(cnnc2-c2ccc([C@H]3CCC[C@@H](C(=O)Nc4ccc(C(F)(F)F)cc4F)[C@@H]3C(=O)O)cc2)C1 [Example 40, (1R,2R,6S)-2-((2-fluoro-4-(trifluoromethyl)phenyl)carbamoyl)-6-(4-(6-(methoxycarbonyl)-5,6,7,8-tetrahydropyrido[3,4-d]pyridazin-1-yl)phenyl)cyclohexane-1-carboxylic acid] |
| 1000 nM | COc1cscc1-c1ccc([C@H]2CCC[C@@H](C(=O)Nc3ccc(C(F)(F)F)cc3F)[C@@H]2C(=O)O)cc1 [Example 42, (1R,2R,6S)-2-((2-fluoro-4-(trifluoromethyl)phenyl)carbamoyl)-6-(4-(4-methoxythiophen-3-yl)phenyl) cyclohexane-1-carboxylic acid] |
| 10 nM | Cc1cscc1-c1ccc([C@H]2CCC[C@@H](C(=O)Nc3ccc(C(F)(F)F)cc3F)[C@@H]2C(=O)O)cc1 [Example 43, (1R,2R,6S)-2-((2-fluoro-4-(trifluoromethyl)phenyl)carbamoyl)-6-(4-(4-methylthiophen-3-yl)phenyl)cyclohexane-1-carboxylic acid] |
| 6310 nM | O=C(O)[C@@H]1[C@@H](c2ccc(-c3ccnc4ccsc34)cc2)CCC[C@H]1C(=O)Nc1ccc(C(F)(F)F)cc1F [Example 44, (1R,2R,6S)-2-((2-fluoro-4-(trifluoromethyl)phenyl)carbamoyl)-6-(4-(thieno[3,2-b]pyridin-7-yl)phenyl)cyclohexane-1-carboxylic acid] |
| 126 nM | O=C(O)[C@@H]1[C@@H](c2ccc(-c3nncc4ccoc34)cc2)CCC[C@H]1C(=O)Nc1ccc(C(F)(F)F)cc1F [Example 45, (1R,2R,6S)-2-((2-fluoro-4-(trifluoromethyl)phenyl)carbamoyl)-6-(4-(furo[2,3-d]pyridazin-7-yl)phenyl)cyclohexane-1-carboxylic acid] |
| 31.6 nM | Cc1sccc1-c1ccc([C@H]2CCC[C@@H](C(=O)Nc3ccc(C(F)(F)F)cc3F)[C@@H]2C(=O)O)cc1 [Example 46, (1R,2R,6S)-2-((2-fluoro-4-(trifluoromethyl)phenyl)carbamoyl)-6-(4-(2-methylthiophen-3-yl)phenyl)cyclohexane-1-carboxylic acid] |
| 10 nM | Cc1cc(-c2ccc([C@H]3CCC[C@@H](C(=O)Nc4ccc(C(F)(F)F)cc4F)[C@@H]3C(=O)O)cc2)cs1 [Example 47, (1R,2R,6S)-2-((2-fluoro-4-(trifluoromethyl)phenyl)carbamoyl)-6-(4-(5-methylthiophen-3-yl)phenyl)cyclohexane-1-carboxylic acid] |
| 7.94 nM | O=C(O)[C@@H]1[C@@H](c2ccc(-c3csnc3CO)cc2)CCC[C@H]1C(=O)Nc1ccc(C(F)(F)F)cc1F [Example 50, (1R,2R,6S)-2-((2-fluoro-4-(trifluoromethyl)phenyl)carbamoyl)-6-(4-(3-(hydroxymethyl)isothiazol-4-yl)phenyl)cyclohexane-1-carboxylic acid] |
| 10 nM | O=C(O)[C@@H]1[C@@H](c2ccc(-c3cnsc3CO)cc2)CCC[C@H]1C(=O)Nc1ccc(C(F)(F)F)cc1F [Example 51, (1R,2R,6S)-2-((2-fluoro-4-(trifluoromethyl)phenyl)carbamoyl)-6-(4-(5-(hydroxymethyl)isothiazol-4-yl)phenyl) cyclohexane-1-carboxylic acid] |
| 794 nM | O=C(O)[C@@H]1[C@@H](c2ccc(-c3ncsc3CO)cc2)CCC[C@H]1C(=O)Nc1ccc(C(F)(F)F)cc1F [Example 52, (1R,2R,6S)-2-((2-fluoro-4-(trifluoromethyl)phenyl)carbamoyl)-6-(4-(5-(hydroxymethyl)thiazol-4-yl)phenyl)cyclohexane-1-carboxylic acid] |
| 1.58 nM | O=C(O)[C@@H]1[C@@H](c2ccc(C3=COCCC3)cc2)CCC[C@H]1C(=O)Nc1ccc(C(F)(F)F)cc1F [Example 56, (1R,2S,6R)—2-(4-(3,4-dihydro-2H-pyran-5-yl)phenyl)-6-((2-fluoro-4-(trifluoromethyl)phenyl)carbamoyl)cyclohexane-1-carboxylic acid] |
| 100 nM | O=C(O)[C@@H]1[C@@H](c2ccc(C3=CCOC3)cc2)CCC[C@H]1C(=O)Nc1ccc(C(F)(F)F)cc1F [Example 57, (1R,2S,6R)-2-(4-(2,5-dihydrofuran-3-yl)phenyl)-6-((2-fluoro-4-(trifluoromethyl)phenyl)carbamoyl) cyclohexane-1-carboxylic acid] |
| 2510 nM | O=C(O)[C@@H]1[C@@H](c2ccc(CCN3CCNC3=O)cc2)CCC[C@H]1C(=O)Nc1ccc(C(F)(F)F)cc1F [Example 60, (1R,2R,6S)-2-((2-fluoro-4-(trifluoromethyl)phenyl)carbamoyl)-6-(4-(2-(2-oxoimidazolidin-1-yl)ethyl)phenyl)cyclohexane-1-carboxylic acid] |
| 126 nM | O=C(O)[C@@H]1[C@@H](c2ccc(C3CCCCC3)cc2)CCC[C@H]1C(=O)Nc1ccc(C(F)(F)F)cc1F [Example 62, (1R,2S,6R)-2-(4-cyclohexylphenyl)-6-((2-fluoro-4-(trifluoromethyl)phenyl)carbamoyl)cyclohexane-1-carboxylic acid] |
| 1580 nM | O=C(O)[C@@H]1[C@@H](c2ccc(C3COC3)cc2)CCC[C@H]1C(=O)Nc1ccc(C(F)(F)F)cc1F [Example 63, (1R,2R,6S)-2-((2-fluoro-4-(trifluoromethyl)phenyl)carbamoyl)-6-(4-(oxetan-3-yl)phenyl)cyclohexane-1-carboxylic acid] |
| 1580 nM | O=C(O)[C@@H]1[C@@H](c2ccc(CC3(CO)COC3)cc2)CCC[C@H]1C(=O)Nc1ccc(C(F)(F)F)cc1F [Example 68, (1R,2R,6S)-2-((2-fluoro-4-(trifluoromethyl)phenyl)carbamoyl)-6-(4-((3-(hydroxymethyl)oxetan-3-yl)methyl)phenyl)cyclohexane-1-carboxylic acid] |
| 6310 nM | O=C(O)[C@@H]1[C@@H](c2ccc(C3CC3)cc2)CCC[C@H]1C(=O)Nc1ccc(C(F)(F)F)cc1F [Example 69, (1R,2S,6R)-2-(4-cyclopropylphenyl)-6-((2-fluoro-4-(trifluoromethyl)phenyl)carbamoyl)cyclohexane-1-carboxylic acid] |
| 100000 nM | O=C(O)[C@@H]1[C@@H](c2ccc(CC3CCNCC3)cc2)CCC[C@H]1C(=O)Nc1ccc(C(F)(F)F)cc1F [Example 71, (1R,2R,6S)-2-((2-fluoro-4-(trifluoromethyl)phenyl)carbamoyl)-6-(4-(piperidin-4-ylmethyl)phenyl)cyclohexane-1-carboxylic acid] |
| 0.501 nM | CN(c1ccc([C@H]2CCC[C@@H](C(=O)Nc3ccc(C(F)(F)F)cc3F)[C@@H]2C(=O)O)cc1)S(=O)(=O)c1nnc[nH]1 [Example 96, (1R,2R,6S)-2-((2-fluoro-4-(trifluoromethyl)phenyl)carbamoyl)-6-(4-(N-methyl-4H-1,2,4-triazole-3-sulfonamido)phenyl)cyclohexane-1-carboxylic acid] |
| 1.58 nM | CN(c1ccc([C@H]2CCC[C@@H](C(=O)Nc3ccc(C(F)(F)F)cc3F)[C@@H]2C(=O)O)cc1)S(=O)(=O)c1cccc(-c2nnco2)c1 [Example 105, (1R,2R,6S)-2-((2-fluoro-4-(trifluoromethyl)phenyl)carbamoyl)-6-(4-((N-methyl-3-(1,3,4-oxadiazol-2-yl)phenyl)sulfonamido)phenyl)cyclohexane-1-carboxylic acid] |
| 6.31 nM | Cc1nc2cc(S(=O)(=O)N(C)c3ccc([C@H]4CCC[C@@H](C(=O)N[C@H]5CC[C@H](C(C)(C)O)CC5)[C@@H]4C(=O)O)cc3)ccc2n1C [Example 183, (1R,2R,6S)-2-(((1r,4R)-4-(2-hydroxypropan-2-yl)cyclohexyl)carbamoyl)-6-(4-((N,1,2-trimethyl-1H-benzo[d]imidazole)-5-sulfonamido)phenyl)cyclohexane-1-carboxylic acid] |
| 631 nM | Cc1nc2cc(S(=O)(=O)N(C)c3ccc([C@H]4CCC[C@@H](C(=O)NC5CCC6(CCCC6)CC5)[C@@H]4C(=O)O)cc3)ccc2n1C [Example 184, (1R,2R,6S)-2-(spiro[4.5]decan-8-ylcarbamoyl)-6-(4-((N,1,2-trimethyl-1H-benzo[d]imidazole)-5-sulfonamido)phenyl)cyclohexane-1-carboxylic acid, formic acid salt] |
| 63.1 nM | Cc1nc2cc(S(=O)(=O)N(C)c3ccc([C@H]4CCC[C@@H](C(=O)NC56CC(C(F)(F)F)(C5)C6)[C@@H]4C(=O)O)cc3)ccc2n1C [Example 185, (1R,2R,6S)-2-((3-(trifluoromethyl)bicyclo[1.1.1]pentan-1-yl)carbamoyl)-6-(4-((N,1,2-trimethyl-1H-benzo[d]imidazole)-5-sulfonamido)phenyl)cyclohexane-1-carboxylic acid, formic acid salt] |
| 3160 nM | Cc1nc2cc(S(=O)(=O)N(C)c3ccc([C@H]4CCC[C@@H](C(=O)NC56CC(C(F)F)(C5)C6)[C@@H]4C(=O)O)cc3)ccc2n1C [Example 186, (1R,2R,6S)-2-((3-(difluoromethyl)bicyclo[1.1.1]pentan-1-yl)carbamoyl)-6-(4-((N,1,2-trimethyl-1H-benzo[d]imidazole)-5-sulfonamido)phenyl)cyclohexane-1-carboxylic acid, formic acid salt] |
| 398 nM | Cc1nc2cc(S(=O)(=O)N(C)c3ccc([C@H]4CCC[C@@H](C(=O)N[C@H]5CC[C@@H](C6CCC6)CC5)[C@@H]4C(=O)O)cc3)ccc2n1C [Example 189, (1R,2R,6S)-2-(((1s,4S)-4-cyclobutylcyclohexyl)carbamoyl)-6-(4-((N,1,2-trimethyl-1H-benzo[d]imidazole)-5-sulfonamido)phenyl)cyclohexane-1-carboxylic acid] |
